23 molecules from ChEMBL document CHEMBL1146667, “Benzodiazepine-based selective inhibitors of mitochondrial F1F0 ATP hydrolase” (Bioorg Med Chem Lett, 2004) can be followed below.

Assay [1] has as its target T1, Mitochondrial complex V; ATP synthase (Bos taurus, UniProt P00829+P05630+P05631+P05632). Put plainly: Inhibitory activity against bovine mitochondrial F1F0-ATP synthase. Type of assay: protein-complex assay.
Assay [2] concerns the target T1, Mitochondrial complex V; ATP synthase. Put plainly: Inhibitory activity against bovine mitochondrial F1F0-ATP hydrolase. The format is protein-complex assay.
Assay [3] deals with T2, Cytochrome P450 2C9 (Homo sapiens, UniProt P11712). As to the kind of experiment: Inhibitory activity against cytochrome P450 2C9. The format is ADME.
T2 sequence (P11712 whole entry): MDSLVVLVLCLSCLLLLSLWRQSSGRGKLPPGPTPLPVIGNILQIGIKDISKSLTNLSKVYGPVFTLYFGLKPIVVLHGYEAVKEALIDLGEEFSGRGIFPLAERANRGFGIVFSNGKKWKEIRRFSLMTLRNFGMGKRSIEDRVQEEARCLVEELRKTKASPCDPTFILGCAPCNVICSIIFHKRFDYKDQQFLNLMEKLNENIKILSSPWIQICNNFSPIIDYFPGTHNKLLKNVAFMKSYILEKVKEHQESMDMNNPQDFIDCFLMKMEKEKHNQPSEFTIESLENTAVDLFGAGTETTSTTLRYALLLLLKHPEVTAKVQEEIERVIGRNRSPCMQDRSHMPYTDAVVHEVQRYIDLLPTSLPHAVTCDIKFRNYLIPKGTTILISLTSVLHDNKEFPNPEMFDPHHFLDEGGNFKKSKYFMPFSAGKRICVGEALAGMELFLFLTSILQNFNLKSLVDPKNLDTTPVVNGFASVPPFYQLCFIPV
The target of assay [4] is T2, Cytochrome P450 2C9. Put plainly: Inhibitory activity against ccytochrome P450 2C9.

T1 sequence (P05632 whole entry): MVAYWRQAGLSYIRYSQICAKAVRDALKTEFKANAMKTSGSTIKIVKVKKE
T1 sequence (P00829 whole entry): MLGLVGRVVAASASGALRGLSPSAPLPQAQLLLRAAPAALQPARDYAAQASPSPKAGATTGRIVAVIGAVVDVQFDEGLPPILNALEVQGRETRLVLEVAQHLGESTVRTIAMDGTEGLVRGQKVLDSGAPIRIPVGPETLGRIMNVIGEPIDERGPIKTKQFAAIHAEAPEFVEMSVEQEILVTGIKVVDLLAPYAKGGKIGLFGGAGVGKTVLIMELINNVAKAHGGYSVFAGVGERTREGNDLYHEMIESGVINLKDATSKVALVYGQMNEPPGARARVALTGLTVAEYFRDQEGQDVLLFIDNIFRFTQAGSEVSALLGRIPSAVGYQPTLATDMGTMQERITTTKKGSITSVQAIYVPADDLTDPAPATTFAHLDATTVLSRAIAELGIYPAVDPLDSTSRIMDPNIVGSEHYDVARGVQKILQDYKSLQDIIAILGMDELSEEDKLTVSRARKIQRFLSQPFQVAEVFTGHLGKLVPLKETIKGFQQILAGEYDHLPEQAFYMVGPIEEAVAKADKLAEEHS
T1 sequence (P05631 whole entry): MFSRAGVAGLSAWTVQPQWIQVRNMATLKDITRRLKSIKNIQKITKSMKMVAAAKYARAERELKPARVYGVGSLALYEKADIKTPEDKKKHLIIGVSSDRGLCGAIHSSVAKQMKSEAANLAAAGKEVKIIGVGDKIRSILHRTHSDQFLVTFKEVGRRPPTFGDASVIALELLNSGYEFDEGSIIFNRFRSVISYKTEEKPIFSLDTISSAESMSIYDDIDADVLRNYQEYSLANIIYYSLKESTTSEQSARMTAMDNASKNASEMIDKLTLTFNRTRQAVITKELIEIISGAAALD
T1 sequence (P05630 whole entry): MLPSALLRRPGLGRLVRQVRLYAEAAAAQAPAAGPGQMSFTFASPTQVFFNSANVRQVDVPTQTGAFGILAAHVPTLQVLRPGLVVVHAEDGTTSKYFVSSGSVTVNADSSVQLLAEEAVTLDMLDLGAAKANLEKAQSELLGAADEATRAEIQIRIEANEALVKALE

Take `N#Cc1ccc(S(=O)(=O)N2Cc3ccccc3N(Cc3cnc[nH]3)C(CCc3ccccc3)C2)cc1` (centres undefined): the IC50 in assay [1] was more than 30000 nM; in assay [2], 255 nM.
Taken in the same sequence, the figures for `O=S(=O)(N1Cc2ccccc2N(Cc2c[nH]cn2)C(CCc2ccccc2)C1)C(F)(F)F` (centres undefined) were more than 30000 nM and 77 nM.
On the same counts, the results for `O=S(=O)(Cc1ccccc1)N1Cc2ccccc2N(Cc2c[nH]cn2)C(CCc2ccccc2)C1` (centres undefined) are more than 30000 nM and 2410 nM.
In the case of `Cc1nc(CN2c3ccccc3CN(S(=O)(=O)c3ccc(F)cc3)CC2CCc2ccccc2)c[nH]1` (centres undefined), the figures for the IC50 in assay [1] and in assay [2] were more than 30000 nM and 9620 nM, respectively.
As to `O=S(=O)(c1cccc2nonc12)N1Cc2ccccc2N(Cc2cnc[nH]2)C(CCc2ccccc2)C1` (centres undefined), the values for the concentration for half-maximal inhibition (IC50) in assay [1] and in assay [2] were more than 30000 nM and 1780 nM, respectively.
On the same counts, the results for `O=[N+]([O-])c1cccc(S(=O)(=O)N2Cc3ccccc3N(Cc3cnc[nH]3)C(CCc3ccccc3)C2)c1` (centres undefined) are more than 30000 nM and 423 nM.
Taken in the same sequence, the figures for `O=S(=O)(c1ccc(O)cc1)N1Cc2ccccc2N(Cc2cnc[nH]2)C(CCc2ccccc2)C1` (centres undefined) were more than 30000 nM and 667 nM.
Taken in the same sequence, the figures for `O=S(=O)(c1cccc2ccccc12)N1Cc2ccccc2N(Cc2cnc[nH]2)C(CCc2ccccc2)C1` (centres undefined) were more than 30000 nM and 338 nM.
Consider `Cc1nc[nH]c1CN1c2ccccc2CN(S(=O)(=O)c2ccc(Cl)c(Cl)c2)CC1CCc1ccccc1` (centres undefined), for which the results for the IC50 (in assay [1]; against Cytochrome P450 2C9 [3]; in assay [2]) were more than 30000 nM, 2000 nM and 22 nM, respectively.
In the case of `O=S(=O)(c1ccc(F)cc1)N1Cc2ccccc2N(Cc2c[nH]cn2)C(CCc2ccccc2)C1` (centres undefined), the IC50 in assay [1] was more than 30000 nM; in assay [2] it was 221 nM.
On the same counts, the results for `CC(C)(C)c1ccc(CN2Cc3ccccc3N(Cc3cnc[nH]3)C(CCc3ccccc3)C2)cc1` (centres undefined) are more than 30000 nM and 2140 nM.
As for `CC(=O)Nc1ccc(S(=O)(=O)N2Cc3ccccc3N(Cc3cnc[nH]3)C(CCc3ccccc3)C2)cc1` (centres undefined), the IC50 in assay [1] was more than 30000 nM; in assay [2], 2980 nM.
On the same counts, the results for `O=S(=O)(c1cccs1)N1Cc2ccccc2N(Cc2cnc[nH]2)C(CCc2ccccc2)C1` (centres undefined) are more than 30000 nM and 636 nM.
In the case of `O=S(=O)(c1cccc2cccnc12)N1Cc2ccccc2N(Cc2c[nH]cn2)C(CCc2ccccc2)C1` (centres undefined), the IC50 is more than 30000 nM in assay [1] and 2930 nM in assay [2].
Taken in the same sequence, the figures for `Cc1nc[nH]c1CN1c2ccccc2CN(Cc2ccc(C(C)(C)C)cc2)CC1CCc1ccccc1` (centres undefined) were more than 30000 nM and 2350 nM.
Taken in the same sequence, the figures for `N#Cc1ccc(S(=O)(=O)N2Cc3ccccc3N(Cc3c[nH]cn3)C(CCc3ccccc3)C2)c(Cl)c1` (centres undefined) were more than 30000 nM and 939 nM.
On to `Cc1[nH]cnc1CN1c2ccccc2CN(S(=O)(=O)c2ccc(C(C)(C)C)cc2)CC1CCc1ccccc1` (centres undefined), for which the IC50 was more than 30000 nM in assay [1], 3000 nM against Cytochrome P450 2C9 [3] and 77 nM in assay [2].
Turning to `Cc1nc[nH]c1CN1c2ccccc2CN(S(=O)(=O)c2ccc(F)cc2)CC1CCc1ccccc1` (centres undefined), the IC50 in assay [1] is more than 30000 nM; in assay [2], 151 nM.
On the same counts, the results for `O=S(=O)(c1cc(Cl)ccc1Cl)N1Cc2ccccc2N(Cc2cnc[nH]2)C(CCc2ccccc2)C1` (centres undefined) are more than 30000 nM and 158 nM.
In the case of `CC(C)(C)c1ccc(S(=O)(=O)N2Cc3ccccc3N(Cc3c[nH]cn3)C(CCc3ccccc3)C2)cc1` (centres undefined), the results for the IC50 (in assay [1]; at Cytochrome P450 2C9 [4]; in assay [2]) were more than 30000 nM, 38 nM and 8 nM, respectively.
For `COc1ccc(S(=O)(=O)N2Cc3ccccc3N(Cc3c[nH]cn3)C(CCc3ccccc3)C2)cc1` (centres undefined), the IC50 in assay [1] was more than 30000 nM; in assay [2], 77 nM.
On the same counts, the results for `CC(C)(C)c1ccc(S(=O)(=O)N2Cc3ccccc3N(Cc3ncc[nH]3)C(CCc3ccccc3)C2)cc1` (centres undefined) are more than 30000 nM and more than 10000 nM.
In the case of `O=S(=O)(c1ccccc1)N1Cc2ccccc2N(Cc2cnc[nH]2)C(CCc2ccccc2)C1` (centres undefined), the IC50 in assay [1] was more than 30000 nM; in assay [2] it was 282 nM.

Broadly, the IC50 is the concentration that inhibits the measured activity by half.
